{"source": "ChEMBL document CHEMBL5614422", "about": "“Design, synthesis and biological evaluation of N-salicyloyl tryptamine derivatives as multifunctional neuroprotectants for the treatment of ischemic stroke” (Eur J Med Chem, 2024)", "key": {"Mus musculus [1]": {"test_system": "Mus musculus", "assay": "Neuroprotective activity against MCAO-R induced 12 hrs fasted male C57BL/6J mouse model assessed as reduction in infarct volume at 25 mg/kg, ip for 7 days by TTC staining based analysis", "type": "functional, organism-based", "settings": "time 7.0 day"}, "HT-22 [2]": {"test_system": "HT-22", "assay": "Induction of morphological changes in OGD/R induced mouse HT-22 cells assessed as attenuation of cell shrinkage by microscopic based analysis", "type": "functional"}, "BV-2": {"test_system": "BV-2", "assay": "Anti-inflammatory activity against OGD/R and erastin induced ferroptosis in mouse BV-2 cells assessed as inhibition of IL-6 production preincubated for 6 hrs followed by OGD addition and measured after 1 hr by ELISA method", "type": "functional, cell-based", "settings": "dose 10-40 µM, time 7.0 hrs"}, "[3]": {"molecular_target": "T1, Nuclear factor erythroid 2-related factor 2 (Mus musculus) (UniProt Q60795)", "T1 sequence (whole entry)": "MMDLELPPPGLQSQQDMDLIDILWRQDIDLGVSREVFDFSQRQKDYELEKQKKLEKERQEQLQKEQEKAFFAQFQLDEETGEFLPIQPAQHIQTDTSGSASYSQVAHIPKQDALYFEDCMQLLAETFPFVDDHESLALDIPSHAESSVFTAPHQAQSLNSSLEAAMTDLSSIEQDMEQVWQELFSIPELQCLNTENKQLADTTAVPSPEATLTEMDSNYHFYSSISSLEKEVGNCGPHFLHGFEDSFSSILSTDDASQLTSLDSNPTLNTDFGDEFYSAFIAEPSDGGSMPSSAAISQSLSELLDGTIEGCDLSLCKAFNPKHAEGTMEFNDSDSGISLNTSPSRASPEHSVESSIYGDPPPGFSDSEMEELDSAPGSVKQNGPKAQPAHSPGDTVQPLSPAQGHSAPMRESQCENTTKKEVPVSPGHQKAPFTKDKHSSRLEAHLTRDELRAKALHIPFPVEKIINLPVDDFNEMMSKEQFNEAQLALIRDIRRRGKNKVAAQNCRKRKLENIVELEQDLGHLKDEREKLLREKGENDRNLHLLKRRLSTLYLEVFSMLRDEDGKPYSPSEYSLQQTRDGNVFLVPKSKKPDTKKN", "assay": "Activation of Nrf2 in OGD/R induced mouse HT-22 cells assessed as induction of Nrf2 nuclear translocation at 1 to 10 uM by immunofluorescence analysis", "type": "cell-based", "settings": "filed as activator, dose 1-10 µM"}, "[4]": {"molecular_target": "Phospholipid hydroperoxide glutathione peroxidase GPX4 (Mus musculus) (UniProt O70325)", "sequence (O70325 whole entry)": "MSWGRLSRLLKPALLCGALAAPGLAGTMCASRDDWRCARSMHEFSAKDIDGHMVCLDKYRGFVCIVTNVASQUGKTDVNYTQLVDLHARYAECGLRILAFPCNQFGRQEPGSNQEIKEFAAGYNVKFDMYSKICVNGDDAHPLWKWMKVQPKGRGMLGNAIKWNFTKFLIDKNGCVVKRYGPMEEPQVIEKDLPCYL", "assay": "In vivo activation of Nrf2 pathway in MCAO-R induced 12 hrs fasted male C57BL/6J mouse model assessed as increase in GPX4 expression level at 10 to 50 mg/kg, ip by Western blot analysis", "type": "functional, organism-based", "settings": "dose 10-50 mg/kg"}, "HT-22 [5]": {"test_system": "HT-22", "assay": "Upregulation of GCLC protein level in OGD/R induced mouse HT-22 cells at 1 to 10 uM by Western blot analysis", "type": "functional, cell-based", "settings": "dose 1-10 µM"}, "Mus musculus [6]": {"organism": "Mus musculus", "assay": "Antiinflammatory activity in MCAO-R induced 12 hrs fasted male C57BL/6J mouse model assessed as reduction in IL-18 level by ELISA method", "type": "functional, organism-based"}, "[7]": {"assay": "Antioxidant activity assessed as free radical scavenging activity at 40 to 80 uM incubated in dark for 30 mins under shaking condition by DPPH assay", "type": "functional", "settings": "dose 40-80 µM"}, "HT-22 [8]": {"test_system": "HT-22", "assay": "Antioxidant activity against OGD/R induced oxidative stress in mouse HT-22 cells assessed as decrease in MDA content by absorbance based automatic microplate reader analysis", "type": "functional, cell-based"}, "Mus musculus [9]": {"test_system": "Mus musculus", "assay": "Neuroprotective activity against MCAO-R induced 12 hrs fasted male C57BL/6J mouse model assessed as increase in SOD activity in cerebral ischemic tissue at 10 to 50 mg/kg, ip administered once a day for 7 days", "type": "functional, organism-based", "settings": "dose 10-50 mg/kg, time 7.0 day"}, "HT-22 [10]": {"test_system": "HT-22", "assay": "Cytoprotective activity against OGD/R induced mouse HT-22 cells assessed as increase in cell viability at 10 uM measured after 24 hrs by MTT assay", "type": "functional, cell-based"}, "Mus musculus [11]": {"organism": "Mus musculus", "assay": "Antiinflammatory activity in MCAO-R induced 12 hrs fasted male C57BL/6J mouse model assessed as reduction in TNF-alpha level by ELISA method", "type": "functional, organism-based"}, "HT-22 [12]": {"test_system": "HT-22", "assay": "Upregulation of Nrf2 protein level in OGD/R induced mouse HT-22 cells at 1 to 10 uM by Western blot analysis", "type": "functional, cell-based", "settings": "dose 1-10 µM"}, "HT-22 [13]": {"test_system": "HT-22", "assay": "Antioxidant activity against OGD/R induced oxidative stress in mouse HT-22 cells assessed as reduction in ROS release level at 1 to 10 uM by DCFH-DA staining based flow cytometry analysis", "type": "functional, cell-based", "settings": "dose 1-10 µM"}, "HT-22 [14]": {"test_system": "HT-22", "assay": "Upregulation of HO-1 protein level in OGD/R induced mouse HT-22 cells at 1 to 10 uM by Western blot analysis", "type": "functional, cell-based", "settings": "dose 1-10 µM"}, "Mus musculus [15]": {"test_system": "Mus musculus", "assay": "Neuroprotective activity against MCAO-R induced 12 hrs fasted male C57BL/6J mouse model assessed as decrease in S100 expression in DG by measuring decrease in fluorescence intensity administered once a day as ip dose for 7 days by immunofluorescence method", "type": "functional, organism-based", "settings": "dose 10-50 mg/kg, time 7.0 day"}, "HT-22 [16]": {"test_system": "HT-22", "assay": "Upregulation of GPX4 protein level in OGD/R induced mouse HT-22 cells at 10 uM in presence of ML385 by Western blot analysis", "type": "functional, cell-based"}, "HT-22 [17]": {"test_system": "HT-22", "assay": "Anti-ferroptotic activity against OGD/R induced mouse HT-22 cells increase in GSH level at 10 uM", "type": "functional, cell-based"}, "HT-22 [18]": {"test_system": "HT-22", "assay": "Anti-ferroptotic activity in mouse HT-22 cells assessed as prevention of erastin-induced cell death at 1 to 10 uM by MTT assay", "type": "functional, cell-based", "settings": "dose 1-10 µM"}, "HT-22 [19]": {"test_system": "HT-22", "assay": "Cytoprotective activity against OGD/R induced mouse HT-22 cells assessed as inhibition of intracellular LDH release at 10 uM in presence of ML385", "type": "functional, cell-based"}, "[20]": {"assay": "Antioxidant activity assessed as trolox equivalent of ORAC radical scavenging activity at 0.125 to 2 uM by AAPH based automatic microplate reader analysis", "type": "functional", "settings": "dose 0.125-2 µM"}, "HT-22 [21]": {"test_system": "HT-22", "assay": "Antioxidant activity against OGD/R induced damage in mouse HT-22 cells assessed as decrease in proportion of mitochondrial depolarized cells by JC-1 fluorescence based flow cytometry analysis", "type": "functional, cell-based", "settings": "dose 1-10 µM"}, "Mus musculus [22]": {"test_system": "Mus musculus", "assay": "Neuroprotective activity against MCAO-R induced 12 hrs fasted male C57BL/6J mouse model assessed as reduction in neurologic deficit score administered as ip once a day for 7 days by TTC staining based analysis", "type": "functional, organism-based", "settings": "time 7.0 day"}, "HT-22 [23]": {"test_system": "HT-22", "assay": "Anti-ferroptotic activity against OGD/R induced mouse HT-22 cells decrease in MDA level at 10 uM in presence of ML385", "type": "functional, cell-based"}, "HT-22 [24]": {"test_system": "HT-22", "assay": "Anti-ferroptotic activity against OGD/R induced mouse HT-22 cells decrease as in Fe2+ level at 10 uM by cell ferrous calorimetry analysis", "type": "functional, cell-based"}, "HT-22 [25]": {"test_system": "HT-22", "assay": "Antioxidant activity against OGD/R induced oxidative stress in mouse HT-22 cells assessed as increase in SOD activity by absorbance based automatic microplate reader analysis", "type": "functional, cell-based"}, "HT-22 [26]": {"test_system": "HT-22", "assay": "Upregulation of HO-1 protein level in OGD/R induced mouse HT-22 cells at 10 uM in presence of ML385 by Western blot analysis", "type": "functional, cell-based"}}, "note": "The source made the active and inactive calls. The rule behind the calls is not given here.", "data": [{"smiles": "Cc1ccc(C(=O)NCCc2c[nH]c3ccc(N(C)C)cc23)c(O)c1", "values": [{"measurement": "Activity", "setting": "Mus musculus [1]", "value": "Active"}, {"measurement": "Activity", "setting": "HT-22 [2]", "value": "Active"}, {"measurement": "Activity", "setting": "BV-2", "value": "Dose-Dependent Effect"}, {"measurement": "Activity", "setting": "[3]", "value": "Active"}, {"measurement": "Activity", "setting": "[4]", "value": "Active"}, {"measurement": "Activity", "setting": "HT-22 [5]", "value": "Active"}, {"measurement": "Activity", "setting": "Mus musculus [6]", "value": "Active"}, {"measurement": "Activity", "setting": "[7]", "value": "Active"}, {"measurement": "Activity", "setting": "HT-22 [8]", "value": "Active"}, {"measurement": "Activity", "setting": "Mus musculus [9]", "value": "Active"}, {"measurement": "Activity", "setting": "HT-22 [10]", "value": "Active"}, {"measurement": "Activity", "setting": "Mus musculus [11]", "value": "Active"}, {"measurement": "Activity", "setting": "HT-22 [12]", "value": "Active"}, {"measurement": "Activity", "setting": "HT-22 [13]", "value": "Active"}, {"measurement": "Activity", "setting": "HT-22 [14]", "value": "Active"}, {"measurement": "Activity", "setting": "Mus musculus [15]", "value": "Dose-Dependent Effect"}, {"measurement": "Activity", "setting": "HT-22 [16]", "value": "inactive"}, {"measurement": "Activity", "setting": "HT-22 [17]", "value": "Active"}, {"measurement": "Activity", "setting": "HT-22 [18]", "value": "Active"}, {"measurement": "Activity", "setting": "HT-22 [19]", "value": "inactive"}, {"measurement": "Activity", "setting": "[20]", "value": 5.2}, {"measurement": "Activity", "setting": "HT-22 [21]", "value": "Dose-Dependent Effect"}, {"measurement": "Activity", "setting": "Mus musculus [22]", "value": "Dose-Dependent Effect"}, {"measurement": "Activity", "setting": "HT-22 [23]", "value": "inactive"}, {"measurement": "Activity", "setting": "HT-22 [24]", "value": "Active"}, {"measurement": "Activity", "setting": "HT-22 [25]", "value": "Active"}, {"measurement": "Activity", "setting": "HT-22 [26]", "value": "inactive"}]}]}
